Tested on: vaginal microbiota
Assay: Vaginal microbiota by PCR-DGGE (cluster analysis, Similarity Index, Richness Index)
Assay type: in vivo, human
Parameters: key to Similarity Index V1-V3 / Similarity Index V1-V4 / Similarity Index V3-V4 / Similarity Index V1-V3-V4: % similarity between DGGE profiles (Pearson correlation)
Description: During the clinical trial samples of vaginal rinses were taken, and the composition of vaginal microbiota was determined by means of the PCR-DGGE technique, allowing the identification of various bacterial DNA through an electrophoretic process and a DNA amplification with universal primers for the bacterial 16S rRNA region. The result of this technique was a sequence of visible bands, called clusters, wherein each of them is representative for the DNA of bacterial species present in the considered sample. The analysis of clusters of DGGE profiles of samples, carried out by using the FPQuest software (Bio-Rad) gives the information relating to the similarity of two samples. In the specific case wherein the recovery is intended as reduction of pathogenic species, it is positive that the sample of a patient after treatment is quite different from the sample of the same patient before treatment. The analysis was carried out with vaginal samples at the visits V1, V3 and V4 for the four groups A, B, C and D of treated patients. In order to evaluate the pharmacological action of the examined rifaximin preparations, different treatment groups were compared through the so called Similarity Indexes (SI). The analysis consists in evaluating the similarity of electrophoretic profiles calculated on the basis of the Pearson correlation coefficient. In the examined case, SI indicates the percent similarity between two or more DGGE profiles belonging to the same person at the different visits. Another adopted criterion of evaluation of the samples is the so called Richness Index (RI). This criterion, based on the bands of each DGGE profile, gives the measure of the complexity of the bacterial population, which is a sign of disease for the occurrence of new pathogenic species. Table 32 reports the RI average values, measured at the visits V1 and V3.

[1] = Group A: 1 tablet 100 mg × 5 days
[2] = Group B: 1 tablet 25 mg × 5 days
[3] = Group C: 1 tablet 100 mg × 2 days

SMILES: CO[C@H]1/C=C/O[C@@]2(C)Oc3c(C)c(O)c4c(O)c(c5c(nc6cc(C)ccn65)c4c3C2=O)NC(=O)/C(C)=C\C=C\[C@H](C)[C@H](O)[C@@H](C)[C@@H](O)[C@@H](C)[C@H](OC(C)=O)[C@@H]1C [Rifaximin]
- Percent of patients with clusterizing profiles, V1 vs. V3 [1]: 37%
- Percent of patients with clusterizing profiles, V1 vs. V3 vs. V4 [1]: 0%
- Similarity Index V1-V3 [1]: 61.6
- Similarity Index V1-V3-V4 [1]: 50.8
- Similarity Index V1-V4 [1]: 52.1
- Similarity Index V3-V4 [1]: 66.8
- Percent of patients with clusterizing profiles, V1 vs. V3 [2]: 24%
- Percent of patients with clusterizing profiles, V1 vs. V3 vs. V4 [2]: 0%
- Similarity Index V1-V3 [2]: 48.4
- Similarity Index V1-V3-V4 [2]: 36.4
- Similarity Index V1-V4 [2]: 40.0
- Similarity Index V3-V4 [2]: 62.1
- Percent of patients with clusterizing profiles, V1 vs. V3 [3]: 28%
- Percent of patients with clusterizing profiles, V1 vs. V3 vs. V4 [3]: 11%
- Similarity Index V1-V3 [3]: 54.0
- Similarity Index V1-V3-V4 [3]: 37.6
- Similarity Index V1-V4 [3]: 47.1
- Similarity Index V3-V4 [3]: 42.8
- Richness Index (visit V1 (before therapy), Group A: 1 tablet 100 mg × 5 days): 13.5
- Richness Index (visit V1 (before therapy), Group B: 1 tablet 25 mg × 5 days): 14.0
- Richness Index (visit V1 (before therapy), Group C: 1 tablet 100 mg × 2 days): 15.4
- Richness Index (visit V3, Group A: 1 tablet 100 mg × 5 days): 10.9
- Richness Index (visit V3, Group B: 1 tablet 25 mg × 5 days): 10.7
- Richness Index (visit V3, Group C: 1 tablet 100 mg × 2 days): 12.2

From US10258610B2, “Pharmaceutical compositions comprising rifaximin, processes for their preparation and their use in the treatment of vaginal infections” (ALFASIGMA S.P.A., priority 2011, dated 2019)
